# Target: T1, hERG channel (Homo sapiens, UniProt Q12809)
# T1 construct: gene KCNH2
# Assay: inhibition of hERG channel current (data not shown)
# Assay type: cell-based
# T1 sequence (Q12809 whole entry): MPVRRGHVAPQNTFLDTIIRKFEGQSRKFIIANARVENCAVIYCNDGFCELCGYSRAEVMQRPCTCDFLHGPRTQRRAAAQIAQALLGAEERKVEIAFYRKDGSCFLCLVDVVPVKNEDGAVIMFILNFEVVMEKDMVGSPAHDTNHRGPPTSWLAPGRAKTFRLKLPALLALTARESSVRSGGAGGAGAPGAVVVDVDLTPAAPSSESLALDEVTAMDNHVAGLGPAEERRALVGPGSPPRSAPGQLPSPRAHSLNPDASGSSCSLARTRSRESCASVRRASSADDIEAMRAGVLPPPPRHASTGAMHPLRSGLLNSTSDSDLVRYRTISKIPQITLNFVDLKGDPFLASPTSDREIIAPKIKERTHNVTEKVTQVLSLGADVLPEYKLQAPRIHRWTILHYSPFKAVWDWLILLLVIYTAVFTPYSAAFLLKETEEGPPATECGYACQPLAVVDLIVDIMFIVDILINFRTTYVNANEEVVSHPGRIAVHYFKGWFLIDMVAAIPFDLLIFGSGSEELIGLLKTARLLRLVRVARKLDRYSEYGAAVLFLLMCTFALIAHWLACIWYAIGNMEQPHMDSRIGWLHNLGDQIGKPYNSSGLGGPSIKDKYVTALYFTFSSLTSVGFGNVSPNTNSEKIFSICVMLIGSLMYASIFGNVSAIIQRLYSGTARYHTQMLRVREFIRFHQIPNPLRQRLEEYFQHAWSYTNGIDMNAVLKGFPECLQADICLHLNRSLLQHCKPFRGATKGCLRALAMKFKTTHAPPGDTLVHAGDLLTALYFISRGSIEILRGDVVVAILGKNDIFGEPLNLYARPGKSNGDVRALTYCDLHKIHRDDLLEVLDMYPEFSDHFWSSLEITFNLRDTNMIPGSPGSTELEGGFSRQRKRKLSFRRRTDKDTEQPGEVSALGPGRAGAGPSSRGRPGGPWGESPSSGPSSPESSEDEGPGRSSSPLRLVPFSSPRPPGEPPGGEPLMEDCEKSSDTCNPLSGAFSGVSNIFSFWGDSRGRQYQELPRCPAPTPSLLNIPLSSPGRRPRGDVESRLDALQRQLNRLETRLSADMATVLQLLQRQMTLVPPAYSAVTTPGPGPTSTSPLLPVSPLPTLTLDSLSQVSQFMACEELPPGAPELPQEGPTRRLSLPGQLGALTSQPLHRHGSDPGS
smiles,measurement,value
"COc1cc(-c2ccc(CN[C@H]3C[C@@H](O)[C@@H](N(C)c4ncnc5sc(CC(F)(F)F)cc45)C3)cc2)nnc1OC [DS-1594a, (1R, 2S, 4R)-4-({[4-(5,6-dimethoxypyridazin-3-yl)phenyl]methyl}amino)-2-{methyl[6-(2,2,2-trifluoroethyl)thieno[2,3-d]pyrimidin-4-yl]amino}cyclopentan-1-ol]",IC50,300 nM

# — paper PMC9960487, “A novel Menin-MLL1 inhibitor, DS-1594a, prevents the progression of acute leukemia with rearranged MLL1 or mutated NPM1” (Cancer Cell International, 2023)
